Tested on: 301 cancer cell lines from different tumor types (OncoPanel; HD Biosciences)
Assay: 2D cell viability inhibition assay (CellTiter-Glo) in cancer cell line panel
Assay type: cell-based
Set-up: key to AUC: AUC as fraction of the no-inhibition area (dose range × 0–100 % of control)
Conditions: for Emax: in %
Protocol: In a larger screening study, compound 1 was evaluated across a broad cancer cell line panel (OncoPanel; HD Biosciences) composed of 301 cancer cell lines from different tumor types.
2D cell viability inhibition assays were performed in multiwell plates seeded with cells from the panel. After seeding, the plates were cultured overnight in a humidified incubator at 37° C. to promote adherence. Assays were initiated in individual wells by adding either DMSO as a vehicle control, growth media as a blank, or serially diluted compound 1 (10 μM to 0.0005 μM with 1:3 serial dilution). Cultures were incubated for 168 hours after which the number of viable cells in each test well was assessed using the CellTiter-Glo® Luminescent Cell Viability Assay. Luminescence readouts were performed using an EnVision® Multilabel Reader and the compound 1 readouts were normalized to the DMSO control readouts, expressed as a percent of the control. Outliers were flagged out by visual inspection. Percent of control was plotted against the corresponding compound 1 concentration and the absolute IC50 value was determined using four-parameter logistic non-linear regression as the concentration where inhibition was 50% of the control. For maximum inhibition <50%, the absolute IC50 was reported as >10. In addition to EC50 and IC50, AUC was determined and was normalized to the area corresponding to theoretical no-inhibition (the rectangular area defined by the compound dose range and 0 to 100 in y). Emax was recorded as the minimum in y with the compound dose range. For those cell lines where Emax>40, EC50 was manually set to 10 μM. A hierarchical clustering algorithm based on Euclidean distance between the standardized input values and “Ward.D” method as implemented in R hclust function was used to visualize the compound 1 cellular potency data. The sensitive/moderate/resistant calls for each cell line was determined by visually inspecting the resulting clustering dendrogram. All the analyses were done in R Core Team.

[1] = Homo sapiens, TE-5, TE5 cell line
[2] = Homo sapiens, TE-6, TE6 cell line
[3] = Homo sapiens, TE-9, TE9 cell line
[4] = Homo sapiens, TE-10, TE10 cell line
[5] = Homo sapiens, TE-11, TE11 cell line
[6] = Homo sapiens, TF-1, TF1 cell line
[7] = Homo sapiens, THP-1, THP1 cell line
[8] = Homo sapiens, TOV112D, TOV112D cell line
[9] = Homo sapiens, TT, T.T cell line
[10] = Homo sapiens, U2OS, U2OS cell line
[11] = Homo sapiens, U-87 MG, U87MG cell line
[12] = Homo sapiens, U-937, U937 cell line
[13] = Homo sapiens, UMUC3, UMUC3 cell line
[14] = Homo sapiens, WM 266-4, WM2664 cell line
[15] = Homo sapiens, WM-115, WM115 cell line
[16] = Homo sapiens, WSUDLCL2, WSUDLCL2 cell line

**Q.** CC(C)c1ccc(N(C)c2ccc3c(c2)OCC[C@H]3CNc2cnccc2C(=O)O)cc1 [Compound 1, 3-({[(4R)-7-{methyl[4-(propan-2-yl)phenyl]amino}-3,4-dihydro-2H-1-benzopyran-4-yl]methyl}amino)pyridine-4-carboxylic acid] was tested. Which IC50 (Homo sapiens, TALL-1, TALL1 cell line) did it give?
**A.** 1.8 nM

**Q.** What about the EC50 [1] of the same compound?
**A.** 6.64 nM

**Q.** And the IC50 [1]?
**A.** 8.47 nM

**Q.** And the EC50 [2]?
**A.** 4.83 nM

**Q.** What about the IC50 [2] of the same compound?
**A.** 6.68 nM

**Q.** And the EC50 [3]?
**A.** 3.75 nM

**Q.** What about the IC50 [3] of the same compound?
**A.** 6.89 nM

**Q.** What about the EC50 [4] of the same compound?
**A.** 9.3 nM

**Q.** And the IC50 [4]?
**A.** 16.3 nM

**Q.** What about the EC50 [5] of the same compound?
**A.** 3.85 nM

**Q.** And the IC50 [5]?
**A.** 4.28 nM

**Q.** What about the IC50 (Homo sapiens, TE-15, 168 h, TE15, oesophagus, squamous cell carcinoma, 168 hours) of the same compound?
**A.** > 10000 nM

**Q.** And the EC50 [6]?
**A.** 1.58 nM

**Q.** What about the IC50 [6] of the same compound?
**A.** 2.59 nM

**Q.** What about the EC50 [7] of the same compound?
**A.** 4.92 nM

**Q.** What about the IC50 [7] of the same compound?
**A.** 6.15 nM

**Q.** And the EC50 [8]?
**A.** 4.26 nM

**Q.** What about the IC50 [8] of the same compound?
**A.** 6.23 nM

**Q.** What about the EC50 [9] of the same compound?
**A.** 4.37 nM

**Q.** What about the IC50 [9] of the same compound?
**A.** 6.75 nM

**Q.** What about the EC50 [10] of the same compound?
**A.** 7.71 nM

**Q.** And the IC50 [10]?
**A.** 9.01 nM

**Q.** And the EC50 [11]?
**A.** ≥ 10000 nM

**Q.** And the IC50 [11]?
**A.** 14.7 nM

**Q.** What about the EC50 [12] of the same compound?
**A.** 2.73 nM

**Q.** What about the IC50 [12] of the same compound?
**A.** 2.55 nM

**Q.** And the IC50 (Homo sapiens, UACC-812, 168 h, UACC812, breast, ductal carcinoma, 168 hours)?
**A.** > 10000 nM

**Q.** And the EC50 [13]?
**A.** 21.9 nM

**Q.** And the IC50 [13]?
**A.** 39.5 nM

**Q.** What about the IC50 (Homo sapiens, VCaP, 168 h, prostate, adenocarcinoma) of the same compound?
**A.** > 10000 nM

**Q.** What about the EC50 [14] of the same compound?
**A.** ≥ 10000 nM

**Q.** What about the IC50 [14] of the same compound?
**A.** 27.5 nM

**Q.** What about the EC50 [15] of the same compound?
**A.** 2.5 nM

**Q.** What about the IC50 [15] of the same compound?
**A.** 478 nM

**Q.** What about the EC50 [16] of the same compound?
**A.** 4.21 nM

**Q.** What about the IC50 [16] of the same compound?
**A.** 5.67 nM

**Q.** And the AUC (J82 cell line)?
**A.** 0.6749

**Q.** And the AUC (JEKO1 cell line)?
**A.** 0.1172

**Q.** What about the AUC (JIMT1 cell line) of the same compound?
**A.** 0.5519

**Q.** What about the AUC (JURKAT cell line) of the same compound?
**A.** 0.1171

**Q.** What about the Emax (JURKAT cell line) of the same compound?
**A.** 0.212

**Q.** What about the AUC (K562 cell line) of the same compound?
**A.** 0.275

**Q.** And the AUC (KALS1 cell line)?
**A.** 0.6559

**Q.** What about the AUC (KARPAS422 cell line) of the same compound?
**A.** 0.329

**Q.** What about the Emax (KARPAS422 cell line) of the same compound?
**A.** 8.084

**Q.** And the AUC (KASUMI1, haematopoietic and lymphoid tissue, acute myeloid leukaemia, 168 hours)?
**A.** 0.8823

**Q.** What about the AUC (KATOIII cell line) of the same compound?
**A.** 0.49

**Q.** And the AUC (KG1, haematopoietic and lymphoid tissue, acute myeloid leukaemia, 168 hours)?
**A.** 0.9592

**Q.** And the AUC (KM12 cell line)?
**A.** 0.3482

**Q.** What about the Emax (KM12 cell line) of the same compound?
**A.** 12.24

**Q.** And the AUC (KMS11 cell line)?
**A.** 0.3918

**Q.** And the Emax (KMS11 cell line)?
**A.** 9.983

**Q.** And the AUC (KNS62 cell line)?
**A.** 0.4761

**Q.** And the Emax (KNS62 cell line)?
**A.** 18.84

**Q.** What about the AUC (KNS81 cell line) of the same compound?
**A.** 0.6309

**Q.** And the IC50 (KNS81 cell line)?
**A.** > 10000 nM

**Q.** What about the AUC (KU1919 cell line) of the same compound?
**A.** 0.3956

**Q.** What about the Emax (KU1919 cell line) of the same compound?
**A.** 14.57

**Q.** And the AUC (KURAMOCHI, ovary, undifferentiated carcinoma, 168 hours)?
**A.** 0.8742

**Q.** And the AUC (KYSE30 cell line)?
**A.** 0.4434

**Q.** What about the Emax (KYSE30 cell line) of the same compound?
**A.** 38.59

**Q.** And the AUC (KYSE70, oesophagus, squamous cell carcinoma, 168 hours)?
**A.** 0.6942

**Q.** What about the AUC (KYSE150 cell line) of the same compound?
**A.** 0.3052

**Q.** And the AUC (KYSE270 cell line)?
**A.** 0.3062

**Q.** What about the AUC (KYSE410 cell line) of the same compound?
**A.** 0.4156

**Q.** And the Emax (KYSE410 cell line)?
**A.** 21.4639

**Q.** What about the AUC (KYSE510 cell line) of the same compound?
**A.** 0.1998

**Q.** And the AUC (LNCAP cell line)?
**A.** 0.3974

**Q.** And the AUC (LOUCY cell line)?
**A.** 0.188

**Q.** What about the EC50 (LOUCY cell line) of the same compound?
**A.** 2.47 nM

**Q.** And the IC50 (LOUCY cell line)?
**A.** 2.47 nM

**Q.** What about the AUC (LOVO cell line) of the same compound?
**A.** 0.6362

**Q.** What about the AUC (LS411N cell line) of the same compound?
**A.** 0.3851

**Q.** And the Emax (LS411N cell line)?
**A.** 6.415

**Q.** And the AUC (LU65 cell line)?
**A.** 0.4091

**Q.** And the Emax (LU65 cell line)?
**A.** 12

**Q.** What about the AUC (LU99, lung, large cell carcinoma, 168 hours) of the same compound?
**A.** 0.79

**Q.** And the AUC (LUDLU1 cell line)?
**A.** 0.5307

**Q.** And the EC50 (LUDLU-1, LUDLU1 cell line)?
**A.** 12.6 nM

**Q.** And the IC50 (LUDLU-1, LUDLU1 cell line)?
**A.** 25.8 nM

**Q.** What about the AUC (MALME3M, skin, NS, 168 hours) of the same compound?
**A.** 0.9867

**Q.** What about the AUC (MC116 cell line) of the same compound?
**A.** 0.2527

**Q.** What about the AUC (MCF7 cell line) of the same compound?
**A.** 0.6592

**Q.** And the AUC (MDAMB157, breast, ductal carcinoma, 168 hours)?
**A.** 0.8362

**Q.** What about the AUC (MDAMB175VII, breast, ductal carcinoma, 168 hours) of the same compound?
**A.** 0.7385

**Q.** What about the AUC (MDAMB231, breast, NS, 168 hours) of the same compound?
**A.** 0.7262

**Q.** And the AUC (MDAMB361, breast, NS, 168 hours)?
**A.** 1.117

**Q.** And the AUC (MDAMB415, breast, NS, 168 hours)?
**A.** 0.9413

**Q.** And the AUC (MDAMB436, breast, NS, 168 hours)?
**A.** 0.8438

**Q.** And the AUC (MDAMB453 cell line)?
**A.** 0.4524

**Q.** And the Emax (MDAMB453 cell line)?
**A.** 21.95

**Q.** And the AUC (MDAMB468, breast, NS, 168 hours)?
**A.** 0.6972

**Q.** What about the AUC (MESSA cell line) of the same compound?
**A.** 0.4933

**Q.** What about the Emax (MESSA cell line) of the same compound?
**A.** 24.22

**Q.** What about the AUC (MEWO, skin, NS, 168 hours) of the same compound?
**A.** 0.7237

**Q.** And the AUC (MIAPACA2 cell line)?
**A.** 0.3322

**Q.** What about the Emax (MIAPACA2 cell line) of the same compound?
**A.** 9.711

**Q.** And the AUC (MKN1 cell line)?
**A.** 0.3945

**Q.** What about the AUC (MKN45 cell line) of the same compound?
**A.** 0.4427

**Q.** And the Emax (MKN45 cell line)?
**A.** 19.77

**Q.** What about the AUC (MOLT4 cell line) of the same compound?
**A.** 0.1376

**Q.** What about the Emax (MOLT4 cell line) of the same compound?
**A.** 0.6048

**Q.** What about the AUC (MPP89 cell line) of the same compound?
**A.** 0.6384

**Q.** What about the IC50 (MPP89 cell line) of the same compound?
**A.** > 10000 nM

**Q.** And the AUC (MV411 cell line)?
**A.** 0.2163

**Q.** What about the AUC (NAMALWA cell line) of the same compound?
**A.** 0.2431

**Q.** And the EC50 (NAMALWA cell line)?
**A.** 3.27 nM

**Q.** And the IC50 (NAMALWA cell line)?
**A.** 3.21 nM

**Q.** And the IC50 (NCI-H1435, 168 h, NCIH1435, lung, non-small cell carcinoma, 168 hours)?
**A.** > 10000 nM

**Q.** What about the EC50 (NCI-H2023, NCIH2023 cell line) of the same compound?
**A.** 2.84 nM

**Q.** And the IC50 (NCI-H2023, NCIH2023 cell line)?
**A.** 3.03 nM

**Q.** What about the EC50 (NCI-H2172, NCIH2172 cell line) of the same compound?
**A.** ≥ 10000 nM

**Q.** What about the IC50 (NCI-H2172, NCIH2172 cell line) of the same compound?
**A.** 133 nM
